Measurements published in patent publication US4291036A, “Pyrido[1,2-A]pyrimidine derivatives and method of analgesic treatment” (priority 1977, dated 1981).
Counter-ions that a name gives are not always drawn. Like-named read-outs stand apart in the source and are kept apart here.

Key:
[1] = Toxicity (LD50; Litchfield and Wilcoxon); conditions: in vivo
Text: Toxicity: Litchfield J. T. and Wilcoxon: J. Pharmacol. Sci 54 (1965) 888.

[2] = Hot plate test (analgesia); type: in vivo, rats; conditions: for ED50: Rattus norvegicus
Procedure: (§1) The analgesic effect was tested on the hot-plate and algolytic tests.
Hot plate test: Woolfe and McDonald J. Pharm. 80, 300 (1944) modified by Porszasz and Herr: Kiserletes Orvostudomany 2, 292 (1950).

[3] = Algolytic test (analgesia); type: in vivo; conditions: for Algolytic test ED100: p.o.
Procedure: as §1
Algolytic test: J. Knoll et. al: Animal and Clinical Pharmacological Techniques in Drug Evaluation Eds. Siegler, P. E. and Meyer J. II. Year Book Medical Pub. Chicago (1967) pages 305-321.

[4] = dog, in vivo
Text: Beagles are much more sensitive to CNS effects than rats, Rhesus monkeys and man.

[5] = Analgesic potency compared with Probon, rat; type: in vivo
[6] = Analgesic potency compared with Probon, dog; type: in vivo
[7] = Inhibition of the CNS effects of Probon; conditions: in vivo
[8] = rat, in vivo
[9] = s.c.; Knoll et al. 1971; cited from earlier work
[10] = s.c.; Knoll et al. 1971; cited from earlier work; remark: listed apart in the source
[11] = iv, Table III, i.v., read-out: LD50 i.v.
[12] = po, Table III, p.o., read-out: LD50 p.o.
[13] = sc, Table III, s.c., read-out: LD50 s.c.
[14] = Table I, route not given, read-out: LD50
[15] = po, Table II, p.o., read-out: Hot plate test ED50
[16] = po, Table III, p.o., read-out: ED50 hot-plate p.o.
[17] = po, Table IV, rats, p.o., read-out: Hot plate test ED50 p.o.
[18] = sc, Table III, s.c., read-out: ED50 hot-plate s.c.
[19] = sc, Table IV, rats, s.c., read-out: Hot plate test ED50 s.c.
[20] = Table IV, rats, i.v., read-out: LD50 rats i.v.
[21] = iv, Table IV, rats, i.v., read-out: Hot plate test ED50 i.v.
[22] = iv, Table III, i.v., read-out: ED50 hot-plate i.v.
[23] = po, Table IV, rats, p.o., read-out: LD50 rats p.o.
[24] = sc, Table IV, rats, s.c., read-out: LD50 rats s.c.

CCc1c(C)nc2cccc(C)n2c1=O.Cl [Compound A, 2,6-dimethyl-3-ethyl-4-oxo-4H-pyrido[1,2-a]pyrimidine hydrochloride]
LD50 [1, 11]: 190 mg/kg
LD50 [1, 12]: 690 mg/kg
LD50 [1, 13]: 520 mg/kg
LD50 [1, 14]: 796 µmol/kg
ED50 [2, 15]: 68 mg/kg
ED50 [2, 16]: 68 mg/kg
ED50 [2, 17]: 68 mg/kg
ED50 [2, 18]: 74 mg/kg
ED50 [2, 19]: 74 mg/kg
ED50 hot-plate p.o. ([2]; Table III, p.o., hydrochloride): 58 mg/kg
algolytic (+5mg./kg morphine), result in words ([3]; Table III): effective per se
ED50 algolytic (+5mg./kg morphine) ([3]; Table III, s.c.): 8.6 mg/kg
ED100 ([3]; po, Table II): 420 mg/kg
ED50 ([3]; sc): 98 mg/kg

Cc1nc2cccc(C)n2c(=O)c1C.Cl [2,3,6-trimethyl-4-oxo-4H-pyrido[1,2-a]pyrimidine hydrochloride]
LD50 [1, 14]: 780 µmol/kg
LD50 [1, 20]: 175 mg/kg
ED50 [2, 17]: 87 mg/kg

CCc1c(C)nc2cccc(C)n2c1=O [2,6-dimethyl-3-ethyl-4-oxo-4H-pyrido[1,2-a]pyrimidine]
CNS symptoms [4]: failing to elicit the CNS symptoms
analgesic potency compared with Probon [5]: more potent analgesic than Probon
analgesic potency compared with Probon [6]: more potent analgesic than Probon
inhibition of the CNS effects of Probon [7]: strongly inhibit the CNS effects of Probon
CNS symptoms [8]: failing to elicit the CNS symptoms

CCOC(=O)c1c[n+](C)c2n(c1=O)C(C)CCC2 (stereo not shown) [Probon, 1,6-dimethyl-3-ethoxycarbonyl-4-oxo-4H-6,7,8,9-tetrahydro-pyrido[1,2-a]pyrimidinium-methosulfate, reference compound]
LD50 ([1]; iv, read-out: LD50 rats i.v.): 220 mg/kg
LD50 ([1]; po, read-out: LD50 rats p.o.): 1600 mg/kg
LD50 ([1]; read-out: LD50): 607 µmol/kg
ED50 [2, 21]: 50 mg/kg
ED50 [2, 17]: 220 mg/kg
dose causing death of the animal ([4]; po): 300 mg/kg
oral dose at which disturbances of coordination and behavior, ataxia appear ([4]; po): above 100 mg./kg. body weight
oral dose level at which CNS symptoms are very marked ([4]; po): 150 to 200 mg/kg
dose causing inhibition of the conditioned reflex [9]: ≥ 250 mg/kg
dose eliciting characteristic desynchronization of the EEG [10]: ≥ 250 mg/kg

CCCc1c(C)nc2ccccn2c1=O.Cl [2-methyl-3-n-propyl-4-oxo-4H-pyrido[1,2-a]pyrimidine hydrochloride]
LD50 [1, 14]: 502 µmol/kg

CCc1c(C)nc2cc(C)cc(C)n2c1=O [Compound C, 2,6,8-trimethyl-3-ethyl-4-oxo-4H-pyrido[1,2-a]pyrimidine.HCl]
LD50 [1, 11]: 120 mg/kg
LD50 [1, 12]: 1500 mg/kg
LD50 [1, 13]: 820 mg/kg
ED50 [2, 22]: 49 mg/kg
ED50 [2, 21]: 49 mg/kg
ED50 [2, 15]: 580 mg/kg
ED50 [2, 16]: 580 mg/kg
ED50 [2, 17]: 580 mg/kg
ED50 [2, 18]: 120 mg/kg
ED50 [2, 19]: 120 mg/kg
Algolytic test ED100 ([3]; Table II): cannot be achieved

CCCCc1c(C)nc2cccc(C)n2c1=O.Cl [2,6-dimethyl-3-n-butyl-4-oxo-4H-pyrido[1,2-a]pyrimidine hydrochloride]
LD50 [1, 23]: 1100 mg/kg
ED50 [2, 17]: 340 mg/kg

CCCCc1c(C)nc2ccccn2c1=O [2-methyl-3-n-butyl-4-oxo-4H-pyrido[1,2-a]pyrimidine . HCl]
LD50 [1, 23]: 1100 mg/kg
ED50 [2, 17]: 251 mg/kg

CCc1c(C)nc2c(C)cccn2c1=O.Cl [2,9-dimethyl-3-ethyl-4-oxo-4H-pyrido[1,2-a]pyrimidine HCl]
LD50 [1, 23]: 820 mg/kg
ED50 [2, 17]: 310 mg/kg

CCc1c(C)nc2ccccn2c1=O [Compound B, 2-methyl-3-ethyl-4-oxo-4H-pyrido[1,2-a]pyrimidine.HCl]
LD50 [1, 11]: 280 mg/kg
LD50 [1, 12]: 1000 mg/kg
LD50 [1, 13]: 620 mg/kg
LD50 [1, 14]: 1070 µmol/kg
ED50 [2, 22]: 100 mg/kg
ED50 [2, 21]: 100 mg/kg
ED50 [2, 15]: 330 mg/kg
ED50 [2, 16]: 300 mg/kg
ED50 [2, 17]: 300 mg/kg
ED50 [2, 18]: 180 mg/kg
ED50 [2, 19]: 180 mg/kg
Algolytic test ED100 ([3]; Table II): cannot be achieved
ED50 algolytic (+5mg./kg morphine) ([3]; Table III, i.v.): 2.75 mg/kg

CCCc1c(C)nc2cccc(C)n2c1=O.Cl [2,6-dimethyl-3-n-propyl-4-oxo-4H-pyrido[1,2-a]pyrimidine hydrochloride]
LD50 [1, 23]: 1000 mg/kg
LD50 [1, 24]: 1200 mg/kg
LD50 [1, 14]: 316 µmol/kg
ED50 [2, 19]: 48 mg/kg

CCc1c(C)nc2ccc(C)cn2c1=O [2,7-dimethyl-3-ethyl-4-oxo-4H-pyrido[1,2-a]pyrimidine . HCl]
LD50 [1, 23]: 900 mg/kg
LD50 [1, 24]: 800 mg/kg
LD50 [1, 20]: 175 mg/kg
ED50 [2, 21]: 75 mg/kg
ED50 [2, 17]: 500 mg/kg
ED50 [2, 19]: 150 mg/kg

CCc1c(C)nc2ccc(Cl)cn2c1=O.Cl [2-methyl-3-ethyl-7-chloro-4-oxo-4H-pyrido[1,2-a]pyrimidine hydrochloride]
LD50 [1, 23]: 1100 mg/kg
ED50 [2, 17]: 98 mg/kg

CCc1nc2cccc(C)n2c(=O)c1C.Cl [3,6-dimethyl-2-ethyl-4-oxo-4H-pyrido[1,2-a]pyrimidine hydrochloride]
LD50 [1, 14]: 120 µmol/kg
